Assay results published in paper PMC5399447, “Neuroprotective pentapeptide CN-105 is associated with reduced sterile inflammation and improved functional outcomes in a traumatic brain injury murine model” (Scientific Reports, 2017).

Tested on: 84 genes related to inflammatory and autoimmune processes
Assay: Mouse Inflammatory Response and Autoimmunity PCR Array, whole brain
Format: in vivo
Design: key to Il9 ΔCt value, S-CN-105 / Il8ra ΔCt value, S-CN-105 / Il1rn ΔCt value, S-CN-105 / Il1f10 ΔCt value, S-CN-105 / Crp ΔCt value, S-CN-105: *: Indicate mRNA expression was below the level of detection
Settings: brain 24 h
Procedure: Frozen, pulverized whole brain tissue was processed for RNA extraction from a separate cohort of treated and untreated injured animals on days 1 post-injury(CN-105, n = 4; vehicle, n = 3; Control(sham-operated), n = 3). Total RNA was extracted from frozen, pulverized whole brain tissue using RNeasy Lipid Tissue Mini Kit(Qiagen, Valencia, CA). RNA quantity and quality was assessed with the NanoDrop ND-1000 spectrophotometer(NanoDrop Technologies, Inc., Wilmington, DE) and by agarose gel electrophoresis. Only samples with a 260/280 ratio between 1.9–2.1, and a 260/230 ratio greater than 2.0, were further processed. First strand complementary DNA(cDNA) was generated from 2 μg total RNA using the RT[2] First strand kit(SABiosciences, Frederick, MD.)
Gene expression was measured using the Mouse Inflammatory Response and Autoimmunity PCR Array(SABiosciences, Frederick, MD), which profiles the expression of 84 genes related to inflammatory and autoimmune processes. RT-PCR was performed according to manufacturer’s instructions Quality of the cDNA and PCR efficiency was verified by housekeeping genes and RT-PCR controls included in the PCR Array.
Raw RT-PCR data were analyzed using the Web-Based PCR Array Data Analysis software(SABiosciences). ΔCt values and ΔΔCt - based fold-change were calculated from raw threshold cycle data, using beta-actin and glyceraldehyde 3-phosphate dehydrogenase(GAPDH) as internal standards for normalization. Fold changes were then normalized against sham-operated controls.

## Ac-VSRRR-amide [CN-105]
TBI CN-105 vs sham vehicle
  Fos fold change TBI-CN-105/S-v: 1.1
  Hdac4 fold change TBI-CN-105/S-v: 13.9
  Ifng fold change TBI-CN-105/S-v: 59.7
  Il1a fold change TBI-CN-105/S-v: 37.7
  Il1b fold change TBI-CN-105/S-v: 416.6
  Il1f10 fold change TBI-CN-105/S-v: 352.3
  Il1r1 fold change TBI-CN-105/S-v: −6.2
  Il1rap fold change TBI-CN-105/S-v: −37.5
  Il1rn fold change TBI-CN-105/S-v: 74.2
  Il6 fold change TBI-CN-105/S-v: 13.2
  Il6ra fold change TBI-CN-105/S-v: 47.9
  Il7 fold change TBI-CN-105/S-v: 5569.8
  Il8ra fold change TBI-CN-105/S-v: 196.8
  Il8rb fold change TBI-CN-105/S-v: 658.4
  Il9 fold change TBI-CN-105/S-v: 1155.5
  Il10 fold change TBI-CN-105/S-v: 82.2
  Il10rb fold change TBI-CN-105/S-v: 1.5
  Il18 fold change TBI-CN-105/S-v: −9.5
  Il18rap fold change TBI-CN-105/S-v: 58.6
  Il22 fold change TBI-CN-105/S-v: 77.8
  Il22ra2 fold change TBI-CN-105/S-v: 3448.3
  Il23a fold change TBI-CN-105/S-v: 838.4
  Il23r fold change TBI-CN-105/S-v: 7.2
  Itgb2 fold change TBI-CN-105/S-v: 9.6
  Lta fold change TBI-CN-105/S-v: 917.0
  Ltb fold change TBI-CN-105/S-v: 75.7
  Ly96 fold change TBI-CN-105/S-v: 19.9
  Myd88 fold change TBI-CN-105/S-v: 8.5
  Nfatc3 fold change TBI-CN-105/S-v: 364.7
  Nfkb1 fold change TBI-CN-105/S-v: −3.1
  Nos2 fold change TBI-CN-105/S-v: 1779.4
  Nr3c1 fold change TBI-CN-105/S-v: −17.8
  Ripk2 fold change TBI-CN-105/S-v: 30.1
  Tirap fold change TBI-CN-105/S-v: 14.0
  Tlr1 fold change TBI-CN-105/S-v: 15.4
  Tlr2 fold change TBI-CN-105/S-v: 10.0
  Tlr3 fold change TBI-CN-105/S-v: 3.9
  Tlr4 fold change TBI-CN-105/S-v: 6.5
  Tlr5 fold change TBI-CN-105/S-v: 2.5
  Tlr6 fold change TBI-CN-105/S-v: 14.9
  Tlr7 fold change TBI-CN-105/S-v: 546.2
  Tnf fold change TBI-CN-105/S-v: 1367.7
  Tnfsf14 fold change TBI-CN-105/S-v: 365.9
  Tollip fold change TBI-CN-105/S-v: −3.2
Sham + CN-105 0.05 mg/kg iv
  Bcl6 ΔCt value, S-CN-105: 6.6E − 02
  C3ar1 ΔCt value, S-CN-105: 4.1E − 03
  C3 ΔCt value, S-CN-105: 7.0E − 04
  C4b ΔCt value, S-CN-105: 7.0E − 03
  Ccl1 ΔCt value, S-CN-105: 2.3E − 05
  Ccl2 ΔCt value, S-CN-105: 8.3E − 04
  Ccl3 ΔCt value, S-CN-105: 8.0E − 04
  Ccl4 ΔCt value, S-CN-105: 3.8E − 04
  Ccl5 ΔCt value, S-CN-105: 1.1E − 03
  Ccl7 ΔCt value, S-CN-105: 1.6E − 03
  Ccl8 ΔCt value, S-CN-105: 2.1E − 03
  Ccl11 ΔCt value, S-CN-105: 2.5E − 04
  Ccl12 ΔCt value, S-CN-105: 6.5E − 03
  Ccl17 ΔCt value, S-CN-105: 4.2E − 03
  Ccl19 ΔCt value, S-CN-105: 2.9E − 02
  Ccl20 ΔCt value, S-CN-105: 1.1E − 04
  Ccl22 ΔCt value, S-CN-105: 3.8E − 04
  Ccl24 ΔCt value, S-CN-105: 9.7E − 05
  Ccl25 ΔCt value, S-CN-105: 1.4E − 02
  Ccr1 ΔCt value, S-CN-105: 7.1E − 04
  Ccr2 ΔCt value, S-CN-105: 5.5E − 04
  Ccr3 ΔCt value, S-CN-105: 2.1E − 03
  Ccr4 ΔCt value, S-CN-105: 6.0E − 06
  Ccr7 ΔCt value, S-CN-105: 2.1E − 04
  Cd40lg ΔCt value, S-CN-105: 6.9E − 05
  Cd40 ΔCt value, S-CN-105: 8.3E − 04
  Cebpb ΔCt value, S-CN-105: 1.1E − 01
  Crp ΔCt value, S-CN-105: *
  Csf1 ΔCt value, S-CN-105: 1.9E − 02
  Cxcl1 ΔCt value, S-CN-105: 1.6E − 04
  Cxcl2 ΔCt value, S-CN-105: 2.8E − 04
  Cxcl3 ΔCt value, S-CN-105: 2.3E − 05
  Cxcl5 ΔCt value, S-CN-105: 2.5E − 03
  Cxcl9 ΔCt value, S-CN-105: 1.0E − 04
  Cxcl10 ΔCt value, S-CN-105: 1.9E − 03
  Cxcl11 ΔCt value, S-CN-105: 9.0E − 05
  Cxcr4 ΔCt value, S-CN-105: 6.6E − 03
  Fasl ΔCt value, S-CN-105: 1.9E − 04
  Flt3l ΔCt value, S-CN-105: 3.0E − 03
  Fos ΔCt value, S-CN-105: 2.3E − 01
  Hdac4 ΔCt value, S-CN-105: 9.1E − 02
  Ifng ΔCt value, S-CN-105: 5.8E − 05
  Il1a ΔCt value, S-CN-105: 1.9E − 03
  Il1b ΔCt value, S-CN-105: 2.0E − 03
  Il1f10 ΔCt value, S-CN-105: *
  Il1r1 ΔCt value, S-CN-105: 1.2E − 02
  Il1rap ΔCt value, S-CN-105: 4.4E − 02
  Il1rn ΔCt value, S-CN-105: *
  Il6ra ΔCt value, S-CN-105: 4.9E − 03
  Il6 ΔCt value, S-CN-105: 1.1E − 04
  Il7 ΔCt value, S-CN-105: 3.2E − 04
  Il8ra ΔCt value, S-CN-105: *
  Il8rb ΔCt value, S-CN-105: 6.1E − 05
  Il9 ΔCt value, S-CN-105: *
  Il10rb ΔCt value, S-CN-105: 3.0E − 02
  Il10 ΔCt value, S-CN-105: 1.1E − 04
  Il18rap ΔCt value, S-CN-105: 4.5E − 05
  Il18 ΔCt value, S-CN-105: 1.8E − 01
